Source: paper PMC11648915, “Identification and development of TRPM4 antagonists to counteract neuronal excitotoxicity” (iScience, 2024)
Read-outs that look alike come from different tables or passages of the source.

Experiments:
[1] = target: human TRPM4 (Homo sapiens, UniProt Q8TD43); experiment: Inside-out patch clamp, human TRPM4; assay type: cell-based; design: Human TRPM4 (UniProtKB: Q8TD43-1) and mouse Trpm4 (UniProtKB: Q7TN37-1) were amplified via PCR; expressed in transfected cells; settings: inside-out patch clamp configuration
Protocol: Patch clamp recordings were conducted using an EPC10 patch clamp amplifier and Patchmaster software (HEKA, Germany). An Ag/AgCl wire served as the reference electrode in all experiments. […] Liquid junction potential was compensated before achieving gigaseal formation. All experiments were conducted at room temperature. Whole-cell currents were recorded in transiently transfected HEK293 cells expressing either wildtype human TRPM4, TRPM4-L907A, or TRPM4-S924A. Recordings involved a 400 ms increasing voltage ramp from –100 mV to +100 mV, initiated from a holding potential of 0 mV. The interval between each sweep was 2 seconds, with data sampled at 5 kHz. […] To identify TRPM4 currents, extracellular Na^+ was replaced with equimolar NMDG^+. […] Similar to whole-cell recordings, a 400 ms increasing voltage ramp from –100 mV to +100 mV was applied from a holding potential of 0 mV. The interval between sweeps was 2 seconds, and data were sampled at 5 kHz. […] TRPM4 currents were activated by 500 μM CaCl2 and deactivated by 10 mM EGTA, both added to the intracellular solution. Ca^2+ activation curves were fitted using a likelihood maximization algorithm to estimate the parameters for the sigmoidal fitting curves y-maximum, slope and midpoint as part of the R package sicegar (V0.2.4).

[2] = test system: hsTRPM4 L907A, S924A and L907A/S924A mutants; experiment: Whole-cell patch clamp of wild-type and binding-site mutant hsTRPM4; settings: whole-cell voltage clamp, HEK293T
Text: Initially, we assessed the basic properties of the hsTRPM4 mutants using whole-cell patch clamp electrophysiology.

[3] = target: T1, mouse TRPM4 (Mus musculus, UniProt Q7TN37); experiment: Inside-out patch clamp, mouse TRPM4; assay type: cell-based; settings: inside-out patch clamp configuration
T1 construct: Human TRPM4 (UniProtKB: Q8TD43-1) and mouse Trpm4 (UniProtKB: Q7TN37-1) were amplified via PCR; eGFP (C); expressed in transfected cells

[4] = In vivo pharmacokinetics after single i.p. or i.v. dose; settings: female, C57BL/6J, mouse
Protocol: Next, to assess in vivo availability of the Series 1–3 compounds, we evaluated drug metabolism and pharmacokinetics (DMPK). We measured compound concentrations in plasma, heart, and brain at several time points after intraperitoneal (i.p.) or intravenous (i.v.) single-dose injections.
Half-life and bioavailability were calculated by noncompartmental analysis using the R package PK[84] (v1.3-6).

[5] = target: T2, CYP 1A2 (Homo sapiens, UniProt P05177); experiment: CYP inhibition assay 1A2; assay type: in vitro ADME
T2 construct: purchased BD Gentest
T2 sequence (P05177 1-516): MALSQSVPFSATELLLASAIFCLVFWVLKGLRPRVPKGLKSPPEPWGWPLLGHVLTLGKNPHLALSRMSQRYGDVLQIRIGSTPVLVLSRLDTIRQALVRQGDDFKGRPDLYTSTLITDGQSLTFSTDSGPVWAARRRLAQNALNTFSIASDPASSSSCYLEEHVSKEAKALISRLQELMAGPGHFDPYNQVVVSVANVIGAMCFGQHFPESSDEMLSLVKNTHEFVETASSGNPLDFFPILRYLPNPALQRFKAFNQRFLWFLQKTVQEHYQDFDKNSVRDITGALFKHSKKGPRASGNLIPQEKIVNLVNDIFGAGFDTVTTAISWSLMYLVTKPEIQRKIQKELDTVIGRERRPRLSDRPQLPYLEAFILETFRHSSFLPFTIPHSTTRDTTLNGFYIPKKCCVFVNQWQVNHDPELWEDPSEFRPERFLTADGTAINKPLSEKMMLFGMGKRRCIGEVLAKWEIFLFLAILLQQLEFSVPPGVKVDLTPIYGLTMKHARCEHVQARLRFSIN
Protocol: (§1) The half-maximal inhibitory concentration (IC50) for cytochrome P450 (CYP) enzymes was determined using an in vitro enzyme inhibition assay. Recombinant CYP enzymes or human liver microsomes from BD Gentest, in 0.1 M phosphate buffer pH 7.4, containing native CYP enzymes were incubated with the test compound at various concentrations (1, 3, 10 and 30 μM) and containing 0.5% DMSO and 0.1% BSA final concentrations. 1 mM of NADPH cofactor was added and the reaction was started by a rapid increase of temperature until 37°C.

[6] = target: T3, CYP 2C19 (Homo sapiens, UniProt P33261); experiment: CYP inhibition assay 2C19; assay type: in vitro ADME
T3 construct: purchased BD Gentest
Protocol: as §1

[7] = target: T4, CYP 2C9 (Homo sapiens, UniProt P11712); experiment: CYP inhibition assay 2C9; assay type: in vitro ADME
T4 construct: purchased BD Gentest
Protocol: as §1

[8] = Caco-2 permeability assay; assay type: in vitro ADME; settings: human, direction not given
Protocol: Caco-2 permeability was evaluated using a cell-based assay with Caco-2 cells cultured on permeable membrane inserts. The test compound was added at 10 μM to the apical (donor) compartment, and samples were collected from the basolateral (receiver) compartment at 120 min. The test compound was also added at 10 μM to the basolateral (donor) compartment, and samples were collected from the apical (receiver) compartment at 120 min. The amount of the compound in both compartments was measured using mass spectrometry (LC-MS/MS). The permeability coefficient (Papp, nm/s) apical to basolateral and basolateral to apical, and an efflux ratio were calculated.

T1 sequence (Q7TN37 whole entry): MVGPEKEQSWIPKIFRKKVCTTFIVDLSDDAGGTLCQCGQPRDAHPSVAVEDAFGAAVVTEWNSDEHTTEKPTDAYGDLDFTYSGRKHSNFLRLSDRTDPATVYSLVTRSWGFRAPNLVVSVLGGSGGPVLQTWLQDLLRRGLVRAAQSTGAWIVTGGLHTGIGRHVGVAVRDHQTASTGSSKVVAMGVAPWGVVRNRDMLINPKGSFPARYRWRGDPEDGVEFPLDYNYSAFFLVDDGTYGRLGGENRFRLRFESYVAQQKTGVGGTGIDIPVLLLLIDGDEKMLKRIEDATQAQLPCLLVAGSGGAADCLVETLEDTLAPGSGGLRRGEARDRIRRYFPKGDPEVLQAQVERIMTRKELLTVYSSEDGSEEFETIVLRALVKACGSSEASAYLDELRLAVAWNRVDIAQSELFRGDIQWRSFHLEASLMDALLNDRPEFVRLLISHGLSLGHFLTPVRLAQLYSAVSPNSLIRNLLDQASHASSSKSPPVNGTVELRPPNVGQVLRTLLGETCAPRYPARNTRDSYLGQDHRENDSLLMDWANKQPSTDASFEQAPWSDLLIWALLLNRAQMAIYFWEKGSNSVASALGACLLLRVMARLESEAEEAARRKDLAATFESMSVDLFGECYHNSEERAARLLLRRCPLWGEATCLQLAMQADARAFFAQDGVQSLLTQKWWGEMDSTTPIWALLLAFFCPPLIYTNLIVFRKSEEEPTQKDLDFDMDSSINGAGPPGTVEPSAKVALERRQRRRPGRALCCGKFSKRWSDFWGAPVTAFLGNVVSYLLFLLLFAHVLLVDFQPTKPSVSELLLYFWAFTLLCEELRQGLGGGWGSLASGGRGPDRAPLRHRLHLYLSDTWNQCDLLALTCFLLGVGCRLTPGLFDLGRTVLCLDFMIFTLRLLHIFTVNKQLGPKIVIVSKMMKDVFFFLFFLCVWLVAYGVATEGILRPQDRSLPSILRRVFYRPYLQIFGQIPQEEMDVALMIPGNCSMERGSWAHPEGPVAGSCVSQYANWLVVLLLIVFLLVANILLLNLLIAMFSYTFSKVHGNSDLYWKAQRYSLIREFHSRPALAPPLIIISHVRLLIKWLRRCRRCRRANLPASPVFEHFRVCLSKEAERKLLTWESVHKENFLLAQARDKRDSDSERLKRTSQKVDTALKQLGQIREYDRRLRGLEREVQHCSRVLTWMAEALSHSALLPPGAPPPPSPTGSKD
Sequence of human TRPM4 (Q8TD43 whole entry): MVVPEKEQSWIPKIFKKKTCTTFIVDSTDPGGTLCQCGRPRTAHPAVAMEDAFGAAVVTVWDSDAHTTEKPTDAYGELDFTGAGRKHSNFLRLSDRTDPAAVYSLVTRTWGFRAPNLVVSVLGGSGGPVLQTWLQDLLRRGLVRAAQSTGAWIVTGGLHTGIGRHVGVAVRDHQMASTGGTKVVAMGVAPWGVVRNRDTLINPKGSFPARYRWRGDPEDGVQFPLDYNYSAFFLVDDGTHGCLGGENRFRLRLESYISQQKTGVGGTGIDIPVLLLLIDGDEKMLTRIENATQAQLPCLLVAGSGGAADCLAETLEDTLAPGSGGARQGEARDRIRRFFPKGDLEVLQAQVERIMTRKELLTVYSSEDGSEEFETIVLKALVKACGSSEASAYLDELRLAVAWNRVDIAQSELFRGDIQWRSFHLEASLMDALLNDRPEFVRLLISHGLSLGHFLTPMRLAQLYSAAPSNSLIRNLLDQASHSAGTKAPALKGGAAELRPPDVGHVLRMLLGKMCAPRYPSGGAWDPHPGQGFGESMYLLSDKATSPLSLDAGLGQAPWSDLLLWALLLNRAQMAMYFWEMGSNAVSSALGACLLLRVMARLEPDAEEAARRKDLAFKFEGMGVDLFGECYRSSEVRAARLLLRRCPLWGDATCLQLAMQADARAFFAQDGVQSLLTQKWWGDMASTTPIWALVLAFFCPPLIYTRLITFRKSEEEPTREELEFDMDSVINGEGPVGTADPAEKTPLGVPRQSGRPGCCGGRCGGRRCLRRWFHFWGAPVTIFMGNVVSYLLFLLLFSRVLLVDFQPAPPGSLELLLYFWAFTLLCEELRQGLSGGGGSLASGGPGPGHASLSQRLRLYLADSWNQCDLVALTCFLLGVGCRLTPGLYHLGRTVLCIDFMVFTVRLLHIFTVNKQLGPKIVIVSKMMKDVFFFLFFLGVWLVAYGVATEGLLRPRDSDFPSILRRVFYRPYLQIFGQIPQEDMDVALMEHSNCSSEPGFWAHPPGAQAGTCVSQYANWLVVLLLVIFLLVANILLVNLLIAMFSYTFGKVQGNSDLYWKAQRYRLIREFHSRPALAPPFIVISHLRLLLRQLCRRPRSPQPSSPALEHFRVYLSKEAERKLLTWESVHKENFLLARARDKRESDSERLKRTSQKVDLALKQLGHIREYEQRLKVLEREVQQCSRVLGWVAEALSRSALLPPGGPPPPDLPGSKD
T3 sequence (P33261 whole entry): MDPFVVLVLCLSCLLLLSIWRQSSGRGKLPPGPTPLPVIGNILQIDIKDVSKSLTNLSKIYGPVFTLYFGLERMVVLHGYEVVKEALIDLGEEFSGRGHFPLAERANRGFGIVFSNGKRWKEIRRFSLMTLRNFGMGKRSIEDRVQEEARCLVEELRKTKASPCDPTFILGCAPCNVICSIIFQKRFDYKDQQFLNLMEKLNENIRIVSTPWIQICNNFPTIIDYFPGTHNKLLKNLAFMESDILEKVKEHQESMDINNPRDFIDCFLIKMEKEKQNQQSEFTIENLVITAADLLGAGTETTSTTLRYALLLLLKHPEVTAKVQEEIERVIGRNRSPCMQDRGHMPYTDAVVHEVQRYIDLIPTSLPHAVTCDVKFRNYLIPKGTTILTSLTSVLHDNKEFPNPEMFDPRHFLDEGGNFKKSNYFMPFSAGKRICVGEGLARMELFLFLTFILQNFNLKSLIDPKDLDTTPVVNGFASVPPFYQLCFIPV
T4 sequence (P11712 whole entry): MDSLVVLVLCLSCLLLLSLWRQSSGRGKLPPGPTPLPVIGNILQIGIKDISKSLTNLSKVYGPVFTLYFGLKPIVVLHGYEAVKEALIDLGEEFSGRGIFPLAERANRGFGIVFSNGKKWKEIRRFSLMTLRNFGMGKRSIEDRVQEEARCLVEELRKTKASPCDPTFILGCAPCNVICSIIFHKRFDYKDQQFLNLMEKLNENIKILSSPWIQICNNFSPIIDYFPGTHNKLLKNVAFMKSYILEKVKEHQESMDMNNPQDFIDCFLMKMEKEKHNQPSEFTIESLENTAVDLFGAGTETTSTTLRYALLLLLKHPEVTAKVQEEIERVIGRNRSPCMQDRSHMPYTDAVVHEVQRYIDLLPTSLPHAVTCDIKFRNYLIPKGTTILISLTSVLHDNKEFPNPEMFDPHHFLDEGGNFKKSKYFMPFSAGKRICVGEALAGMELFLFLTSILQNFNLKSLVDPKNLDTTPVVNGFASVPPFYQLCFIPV

Structure (SMILES): Fc1cccc(-c2ccccc2NCc2nc3ccccc3o2)c1 [CMP343]
- Activity on human TRPM4 [1]: almost completely blocked
- Current inhibition of hsTRPM4 L907A and S924A mutants versus wildtype [2]: significantly reduced current inhibition in at least one hsTRPM4 mutant variant
- Activity on mouse TRPM4 [3]: reduced activity on mouse TRPM4 compared to human TRPM4
- Activity on mouse TRPM4 ([3]; listed as 343): significantly less effective on mouse TRPM4
- half-life ([4]; brain, ip, read-out: Brain half-life (converted)): 2.1 h
- half-life ([4]; brain, iv, read-out: Brain half-life (converted)): 0.2 h
- half-life ([4]; heart, ip, read-out: Heart half-life (converted)): 15.3 h
- half-life ([4]; heart, iv, read-out: Heart half-life (converted)): 2.1 h
- half-life ([4]; plasma, ip, read-out: Plasma half-life (converted)): 4.3 h
- half-life ([4]; plasma, iv, read-out: Plasma half-life (converted)): 0.3 h

Structure (SMILES): Fc1ccccc1-c1ccccc1NCc1nc2ccccc2o1 [CMP353]
- IC50 [5]: 1 µM

Structure (SMILES): c1csc(-c2ccccc2NCc2nc3ccccc3o2)c1 [CMP355]
- IC50 [5]: 1.3 µM
- IC50 [6]: 6.2 µM
- IC50 [7]: 14.9 µM

Structure (SMILES): Cc1ccsc1-c1ccccc1NCc1nc2ccccc2o1 [CMP369]
- Papp at 120 min, 10 μM ([8]; read-out: Caco-2 perm.): 52 ×10⁻⁶ cm/s

Structure (SMILES): Nc1ccccc1-c1ccccc1NCc1nc2ccccc2o1 [CMP457]
- Papp at 120 min, 10 μM ([8]; heading: Caco-2 perm.): 21 ×10⁻⁶ cm/s
